Test results as given in patent publication EP3829564B1, “CURCUMIN AND HOMOTAURINE FOR USE IN PREVENTING OR TREATING COGNITIVE DECLINE FORMS” (ALERE VITAM S.R.L., priority 2018, dated 2020).

How the values were obtained:
Aβ42 peptide = biological target: T1, Aβ42 peptide (Homo sapiens, UniProt P05067); assay: Thioflavin-T assay for inhibition of Aβ 42 aggregation; assay type: biochemical
T1 construct: Beta-amyloid (Aβ 1-42) aggregation studies were conducted; purchased AnaSpec, Inc, Fremont, CA
Experimental: In the present study, the fluorescence spectroscopy with thioflavin T was used to examine the effects of curcumin (CUR), homotaurine (HOM) taken individually and a combination of the two compounds as disclosed herein on the formation of toxic Aβ aggregates.
Thioflavin-T (Th-T dosage), analysis for the inhibition of the Aβ 42 aggregation (also referred to AB42).
Beta-amyloid (Aβ 1-42) aggregation studies were conducted using the SensoLyte ThT Ab42 aggregation kit (AnaSpec, Inc, Fremont, CA).
The Aβ42 peptide was dissolved in a cold analysis buffer (4 °C) and allowed to hydrate for a few minutes. The solution was centrifuged at 10,000 rpm for 5 minutes at 4°C to centrifuge any precipitated material. The fibrillation reaction was initiated by adding thioflavin dye (ThT) at a concentration of 2 mmol/L.
Three test samples (CUR; HOM; CUR + HOM) were added in a volume of 5 µL and the reaction was started by adding the Aβ42 peptide solution. The final volume of the test samples was 100 µL. At the same time, the positive control and the negative control containing nordihydroguaiaretic acid (NDGA), a well-defined inhibitor of Ab aggregation, at the final concentration of 100 µmol/L were established. Fluorescence intensity was measured at 37°C with Ex/Em ¼ 440 nm/484 nm and by shaking of 15s between readings using the microplate reader (Synergy H1; BioTek, Winooski, VT). The fluorescence intensity measurements expressed as relative fluorescence units (RFU) were taken for 90 minutes at 5-minute intervals.

Aβ40 = Aβ40 (Homo sapiens, UniProt P05067); conditions: compared with ibuprofen and naproxen; cited from earlier work
Aβ42 oligomer = biological target: T2, Aβ42 oligomer (Homo sapiens, UniProt P05067); conditions: prior art statement; cited from earlier work
T2 construct: prevents the formation and the toxicity of Aβ42 oligomer

HO-1 [1] = conditions: 6 hours; for increase in HO-1 mRNA: 5, 10, 15 and 30 µM, cortical neurons, astrocytes and endothelial cells; for concentration of maximum HO-1 mRNA: tested 5, 10, 15 and 30 µM
Experimental: (§1) To confirm that the expression of the HO-1 gene measured at the mRNA level corresponded to an equivalent increase in heme oxygenase activity, this activity was measured at the same doses of curcumin and homotaurine 6 and 24 hours after administration.

Nrf2 = Nrf2 protein expression in nuclear extracts (Western blot); assay type: cell-based, rat; conditions: 25 µM; for expression of the Nrf2 protein in nuclear extracts: cortical neurons, astrocytes and endothelial cells, over time, three independent Western blots
Experimental: Three different cell lines, cortical neurons, astrocytes and endothelial cells, were exposed to curcumin, homotaurine or a combination of the two compounds at the final concentration of 25 µM to evaluate the expression of the Nrf2 protein over time.
The rat hippocampal neurons (H 19-7) were purchased by the American Type Culture Collection (Manassas, VA, USA) and cultured according to the manufacturer's instructions.
The neurons were washed twice with 1X PBS. The cells were then collected in 1 ml of 1X PBS and centrifuged at 3000 rpm for 3 min at 4°C. The cell pellet was carefully resuspended in […] of cold buffer containing HEPES 10 mM (pH 7.9), KCI 10 mM, EDTA 0.1 mM, EGTA 0.1 mM, DTT 1 µM and complete protease inhibitor cocktail (Roche, Mannheim, Germany).
The pellet was then incubated on ice for 15 minutes to allow the cells to swell. After this time, 15 µl of 10% of NP-40 were added and the tube was vortexed for 10 s. The homogenate was then centrifuged at 3000 rpm for 3 min at 4°C and the nuclear pellet was resuspended in 30 µl of cold buffer consisting of HEPES 20 mM (pH 7.9), NaCl 0,4 M, EDTA 1 mM, EGTA 1 mM, DTT 1 µM and protease inhibitors. The pellet was then incubated on ice for 15 minutes and vortexed for 10-15 s every 2 minutes. The nuclear extract was finally centrifuged at 13,000 rpm for 5 minutes at 4°C. The supernatant containing the nuclear proteins was resolved with SDS-polyacrylamide gel and subjected to immunoblot analysis using anti-Nrf2 antibodies (dilution 1: 500) and anti-Sp1 (dilution 1: 500).

heme oxygenase = assay: Heme oxygenase activity in treated cells; assay type: cell-based; conditions: same doses; 6 and 24 hours after administration
Experimental: as §1

HO-1 [2] = assay: cells; conditions: 6 h, read-out: maximum increase in HO-1 mRNA, relative to the non-inducible paralogue HO-2 gene
Experimental: as §1

[3] = system: transgenic Alzheimer's mouse (Tg2576); conditions: dietary regime containing curcumin for 6 months; cited from earlier work
[4] = fibrillation time 30 min and 90 min, vs control

T1 sequence (P05067 672-713 limits assumed): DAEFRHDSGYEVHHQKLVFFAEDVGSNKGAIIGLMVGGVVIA
T2 sequence (P05067 672-713): as the sequence (P05067 672-713 limits assumed) above
Aβ40, sequence (P05067 672-711): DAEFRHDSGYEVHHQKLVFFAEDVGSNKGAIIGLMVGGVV

Row | Compound | Aβ aggregation (ThT fluorescence) (Aβ42 peptide; 100 µmol/L, control inhibitor) | Aβ40 aggregation inhibition (Aβ40) | concentration preventing formation and toxicity of Aβ42 oligomer (Aβ42 oligomer) | increase in HO-1 mRNA (HO-1 [1]) | concentration of maximum HO-1 mRNA (HO-1 [1]) | time Nrf2 expression remained upregulated (Nrf2; after treatment) | expression of the Nrf2 protein in nuclear extracts (Nrf2) | heme oxygenase activity (heme oxygenase) | maximal fold induction at 15 µM (HO-1 [2]) | cognitive deficits induced by Aβ amyloid [3] | indices of oxidative damage and inflammation in the brain [3] | Aβ aggregation (ThT fluorescence) (Aβ42 peptide; [4])
1 | CC(Cc1ccc(O)c(O)c1)C(C)Cc1ccc(O)c(O)c1 (centres unmarked) [NDGA, nordihydroguaiaretic acid] | inhibitor of the Aβ aggregation (p <.001) |  |  |  |  |  |  |  |  |  |  | 
2 | COc1cc(C=CC(=O)CC(=O)C=Cc2ccc(O)c(OC)c2)ccc1O [curcumin, 1,7-bis [4-Hydroxy-3-methoxyphenyl]-1,6-heptadiene-3,5-dione] |  | better than ibuprofen and naproxen | 0.1 to 11.0 µM | dosedependent increase in HO-1 mRNA | 15 µM | up to 12 hours | significant timedependent increase | comparable to the results obtained by looking at cellular mRNAs | ~6 | reverses the cognitive deficits induced by Aβ amyloid | suppression of the indices of the oxidative damage and the inflammation in the brain | significantly influence the fibrillation reaction
3 | NCCCS(=O)(=O)O [homotaurine, 3-amino-1-propanesulfonic acid] |  |  |  | much less active in inducing the expression of the HO-1 gene | 15 µM |  | lower increase in nuclear Nrf2 | comparable to the results obtained by looking at cellular mRNAs |  |  |  | significantly influence the fibrillation reaction
